Legend:
[1] = system: thrombocyte aggregation; test: Arachidonic acid-induced thrombocyte aggregation in thrombocyte-rich plasma; type: cell-based, humans; settings: Homo sapiens; 0.8 mM arachidonic acid; concentration giving total restraint of aggregation
Description: Since with the new medicines the restraints of lipoxygenase has been identified as a molecular type of attack, also their influence on the thrombocyte-aggregation has been tested. The essential role of the lipoxygenase pathway for irreversibility of the thrombocyte aggregation is now known. (C. E. Dutilh et al. Prostaglandins and Medicine 6, 111 (1981)). The key role is attributed to the irreversibility of the thrombocyte aggregation in the pathogenesis of thrombotic illnesses. […] In the experiments, the thrombocyte aggregation was triggered either by means of arachidonic acid or by means of platelet activation factor (PAF-Acether).
The testing of the compounds for antithrombotic and thrombolytic activity follows in authentic cell systems of humans in vitro. Thrombocyte-rich plasma from the blood of healthy donors is obtained by centrifugation at 1,000×g. The measurement of the thrombocyte aggregation follows by means of an aggregometer based upon diffuse light scattering or light absorption of the produced cell aggregate. The thrombocyte-rich plasma is pre-incubated at 37° C. for 3 minutes with the active substance or substances; thereafter the thrombocyte aggregation is triggered through the addition of either 0.8 mM arachidonic acid or 1 μM platelet activation factor (PAF-acether). The preparations are then stirred with a velocity of 800 rpm. Indeed according to the employed active substance concentration there occurs either a strong delay or a complete inhibition of the thrombocyte aggregation.

[2] = system: guinea pig trachia; test: Carbachol-induced spasm of guinea pig trachea; settings: Cavia porcellus; spasm triggered by 3.9 μM carbachol; read-out: active substance concentration at which strong to very strong dilatation was clearly determinable
Description: The testing of the compounds for antiasthmatic activity follows on isolated lung strips and isolated tracheal rings from guinea pigs according to measuring methods known from the literature (supra) in modified form. The measurements follow in thermostatically controlled organ bath, isotonically using a contraction measuring arrangement with lift receiver, measuring coil, measuring amplifier (inductive measurement with the aid of a high frequency resonant circuit). The gasification follows with air. The suspension solution has the following composition: 39.46 g NaCl, 2.2 g KCl, 6.07 g Tris, 1.0 g CaCl2, 9.9 g glucose, 1.0 ml saturated MgCl2 -solution, 43 ml 1N HCl; pH 7.4.
(b) Activity on the carbachol-induced spasm of guinea pig trachia
The spasms are triggered by 3.9 μM carbachol.

[3] = system: carrageenin edema of rat paws; test: Inhibition of carrageenin edema of rat paws; type: in vivo; settings: 200 mg/kg perorally, rats
Experimental: The inflammation-inhibiting activity of the compounds of Formula I is expressed, among others, by an inhibition of carrageenin edema in rat paws (see Example 9).
The carrageenin edema is employed in international literature as a model system for inflammation-triggering (prophlogistic) procedures, and offers the possibility of in vivo testing of compounds for inflammation-inhibiting (antiphlogistic) activity.
2(2'-naphthoxy)-acethydroxamic acid is supplied to 10 rats perorally in a dose of 200 mg/kg body weight with simultaneous delivery of 0.1 ml 1% carrageenin solution per animal. The extent of the paw edema is measured hourly after the application, and compared with the control group.

[4] = target: T1, arachidonate-lipoxygenase of human thrombocyte (Homo sapiens, UniProt P18054); test: Arachidonate-lipoxygenase activity of microsome-free lysate of human thrombocyte concentrates; type: biochemical; settings: 0.25 mM
T1 construct: microsome-free lysate of human thrombocyte concentrates; from tissue; host or cells: human thrombocyte (platelet) concentrates, microsome-free lysate
Experimental: (§1) The inhibition of thrombocyte aggregation is likewise ascribed to the inhibition of lipoxygenase in the cells. It has thus been shown that the arachidonate-lipoxygenase activity of a microsome-free lysate of human thrombocyte concentrates is inhibited to the extent of 100% by means of 0.25 mM salicylhydroxamic acid. Moreover, it has been shown that also a series of further lipoxygenases are inhibited by means of the here described hydroxamic acids. The lipoxygenase from soybeans reacts the most insensitive, i.e. it is inhibited by means of 1 mM salicylhydroxamic acid at pH 7.4 to an extent of 60% and by means of 0.4 mM 2-hydroxy-1-napthylhydroxamic acid to an extent of 54%. In contrast, for the lipoxygenase from peas which come closer in their characteristics to human lipoxygenase, the following I50 -values are provided: salicyl hydroxamic acid, 5 μM, 2-hydroxy-1-napthylhydroxamic acid, 2 μM, 2(2'-napthoxy)-acethydroxamic acid, 2 μM. Moreover it has been shown that the formation lipoxygenase products of arachidonic acid in in vitro cultivated aorta endothelial cells of calves is hindered through 0.1 mM 2-hydroxy-1-napthylhydroxamic acids.

[5] = target: T2, lipoxygenase from soybeans (Glycine max, UniProt P08170); test: Inhibition of lipoxygenase from soybeans; type: biochemical; settings: pH 7.4, read-out: inhibition of soybean lipoxygenase
T2 construct: host or cells: soybeans
T2 sequence (P08170 1-839): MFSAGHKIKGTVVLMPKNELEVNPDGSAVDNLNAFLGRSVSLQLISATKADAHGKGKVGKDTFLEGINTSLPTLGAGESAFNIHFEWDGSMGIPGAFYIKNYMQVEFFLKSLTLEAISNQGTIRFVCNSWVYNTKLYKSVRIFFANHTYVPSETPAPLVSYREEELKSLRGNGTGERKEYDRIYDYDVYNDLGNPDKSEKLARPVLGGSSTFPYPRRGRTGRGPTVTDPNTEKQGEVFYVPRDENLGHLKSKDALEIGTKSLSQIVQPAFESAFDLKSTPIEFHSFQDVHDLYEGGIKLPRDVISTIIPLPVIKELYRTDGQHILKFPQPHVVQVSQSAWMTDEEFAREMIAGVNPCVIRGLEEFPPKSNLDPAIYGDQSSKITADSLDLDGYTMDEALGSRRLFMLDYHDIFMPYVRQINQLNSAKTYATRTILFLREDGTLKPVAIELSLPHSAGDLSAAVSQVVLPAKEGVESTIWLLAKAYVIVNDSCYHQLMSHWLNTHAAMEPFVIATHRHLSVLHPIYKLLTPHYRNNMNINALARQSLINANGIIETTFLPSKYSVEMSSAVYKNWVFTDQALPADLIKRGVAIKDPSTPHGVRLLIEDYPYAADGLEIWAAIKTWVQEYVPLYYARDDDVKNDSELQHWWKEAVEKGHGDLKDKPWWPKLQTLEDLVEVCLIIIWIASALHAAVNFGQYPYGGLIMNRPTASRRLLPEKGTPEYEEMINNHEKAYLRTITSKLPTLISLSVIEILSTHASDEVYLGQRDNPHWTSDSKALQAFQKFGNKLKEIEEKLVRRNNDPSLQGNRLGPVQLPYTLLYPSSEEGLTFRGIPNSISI
Experimental: as §1

T1 sequence (P18054 whole entry): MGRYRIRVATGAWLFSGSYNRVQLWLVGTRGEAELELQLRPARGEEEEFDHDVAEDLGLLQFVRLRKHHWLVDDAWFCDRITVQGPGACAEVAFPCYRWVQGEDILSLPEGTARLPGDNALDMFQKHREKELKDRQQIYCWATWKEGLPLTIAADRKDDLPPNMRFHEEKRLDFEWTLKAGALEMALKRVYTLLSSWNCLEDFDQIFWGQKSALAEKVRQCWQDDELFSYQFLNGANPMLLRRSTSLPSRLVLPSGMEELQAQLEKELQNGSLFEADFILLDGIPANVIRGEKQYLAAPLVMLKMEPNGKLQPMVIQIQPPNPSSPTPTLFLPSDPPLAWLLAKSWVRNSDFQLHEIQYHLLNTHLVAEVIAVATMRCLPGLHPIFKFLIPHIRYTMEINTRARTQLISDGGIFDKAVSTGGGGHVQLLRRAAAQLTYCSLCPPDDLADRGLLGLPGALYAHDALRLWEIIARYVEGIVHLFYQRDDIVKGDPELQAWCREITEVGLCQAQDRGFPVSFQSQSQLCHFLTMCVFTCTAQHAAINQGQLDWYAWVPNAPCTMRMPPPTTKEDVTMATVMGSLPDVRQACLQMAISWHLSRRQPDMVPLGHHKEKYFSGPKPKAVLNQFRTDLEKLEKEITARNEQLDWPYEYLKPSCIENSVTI

SMILES | IC100 [1] [µM] | minimal effective concentration [2] [µM] | Restraint (%) of carrageenin edema ([3]; 1 h) [%] | Restraint (%) of carrageenin edema ([3]; 2 h) [%] | Restraint (%) of carrageenin edema ([3]; 3 h) [%] | Restraint (%) of carrageenin edema ([3]; 4 h) [%] | Restraint (%) of carrageenin edema ([3]; 5 h) [%] | inhibition at 250 µM [4] [%] | inhibition at 1000 µM [5] [%]
O=C(COc1ccc2ccccc2c1)NO [2(2'-naphthoxy)-acethydroxamic acid] | 60 | 50 | 27.3 | 27.3 | 20.2 | 35.3 | 21.4 | – | –
O=C(NO)c1ccccc1O [salicylhydroxamic acid] | – | – | – | – | – | – | – | 100 | 60

From US4670469A, “Hydroxamic acid and pharmaceutical preparations containing the same” (VEB Arzneimittelwerk Dresden, priority 1983, dated 1987)
